Experimental data: patent US6998395B2, “Administration of estradiol metabolites for the treatment or prevention of obesity, metabolic syndrome, diabetes, and vascular and renal disorders” (University of Pittsburg,, priority 2001, dated 2006)

Tested on: mesenteric vascular bed of male obese ZSF1 rats
Test: Mesenteric vascular reactivity to acetylcholine and sodium nitroprusside after 26 weeks of treatment
Assay type: in vivo, rat
Settings: 10 ug/kg/hour s.c., versus control; for Vasodilation induced by sodium nitroprusside (mesenteric vascular resistance, FIG. 3): sodium nitroprusside 0.5, 1.5, 5.0 ug/min
Text: After 26 weeks of treatment, animals were anesthetized and instrumented for assessment of heart performance, renal hemodynamics and mesenteric vascular reactivity. A PE-50 catheter was advanced via the carotid artery into the left ventricle and connected to a heart-performance analyzer (Micro-Med, Inc., Louisville, Ky.) for continuous measurement of ten time/pressure variables. A PE-50 catheter was inserted into the femoral artery and connected to a blood pressure analyzer (Micro-Med, Inc.) for measurement of arterial blood pressure. A PE-10 catheter was inserted into the left ureter for urine collection, and a flow probe (Transonic Systems, Inc., Ithaca, N.Y.) was placed on the left renal artery for determination of renal blood flow. An infusion of ^14C-inulin (0.035 uCi/20 ul saline/min) was initiated, and after 60 minutes, two 30-minute clearance periods were conducted. A mid-point blood sample (300 ul) for measurement of radioactivity was collected. Plasma and urine ^14C-inulin radioactivity were measured, and renal clearance of ^14C-inulin was calculated. A flow probe was placed on the mesenteric artery for determination of mesenteric blood flow, and a 32-gauge needle was inserted into the mesenteric artery and attached to a Y-connector for dual intramesenteric artery infusions (25 ul/min each). Angiotensin II (30 ng/min) plus methoxamine (3 ug/min) was delivered via one intramesenteric artery infusion line into the mesenteric vascular bed to the mesenteric vascular bed. […] Vascular resistances were calculated as arterial blood pressure divided by blood flow.
All values refer to means±SEM for 9 to 10 animals in each group. Statistical significance was calculated using either an unpaired Student's t-test or a 2-factor analysis of variance (repeated measures) followed by a Fisher's Least Significance Difference test if appropriate. […]

C[C@]12CC[C@@H]3c4cc(O)c(O)cc4CC[C@H]3[C@@H]1CC[C@@H]2O [2-hydroxyestradiol, estra-1,3,5 (10)-triene-2,3,1 7-triol (17β)]
Decreases in mesenteric vascular resistance induced by acetylcholine (FIG. 2) (acetylcholine 0.3, 1.0, 3.0 ug/min): greater
Vasodilation induced by sodium nitroprusside (mesenteric vascular resistance, FIG. 3): non-significant effect
Vasodilation induced by sodium nitroprusside (mesenteric vascular resistance, FIG. 3) (listed as 2-Hydroxyestradiol): only slightly (non-significantly) enhanced
